Experimental data reported in BindingDB's records for patent US20250346571 (Xizang Haisco Pharmaceutical, 2025).

Target: Poly [ADP-ribose] polymerase 1 (Homo sapiens, UniProt P09874)
Experiment: PARP-1 Enzyme Activity Test Experiment
Description: PARP-1 chemical […] detection kit was purchased from BPS Bioscience. The histone solution in the kit was diluted 5× with 1×PBS, and 25 μL of the diluted histone solution was added to a microwell plate and incubated overnight at 4° C. After the incubation, the plate was washed three times with PBST (0.05% Tween-20). 100 μL of the blocking solution was added to the microwell plate and incubated at 25° C. for 90 minutes. After the incubation was completed, the plate was washed three times with PBST. 2.5 μL of compounds at different concentrations diluted in test buffer and 12.5 μL of substrate mixed solution (1.25 μL 10×PARP test buffer; 1.25 μL 10×PARP test mixed solution; 2.5 μL Activated DNA, 7.5 μL double-distilled water) were added to the microwell plate. The PARP-1 enzyme was diluted to 2 ng/μL, […] was added to the microwell plate, and the reaction system was incubated at 25° C. for 60 minutes. After the incubation was completed, the plate was washed three times with PBST. Streptavidin-HRP was diluted 50× with a blocking solution, and 25 μL of the diluent was added to the microwell plate and incubated at 25° C. for 30 minutes. […] ELISA ECL substrate A and substrate B were uniformly mixed at a ratio of 1:1 (v/v), 50 μL of the mixture was added to the microwell plate, and the chemiluminescence value was read.

Chain of Poly [ADP-ribose] polymerase 1 (P09874 whole entry): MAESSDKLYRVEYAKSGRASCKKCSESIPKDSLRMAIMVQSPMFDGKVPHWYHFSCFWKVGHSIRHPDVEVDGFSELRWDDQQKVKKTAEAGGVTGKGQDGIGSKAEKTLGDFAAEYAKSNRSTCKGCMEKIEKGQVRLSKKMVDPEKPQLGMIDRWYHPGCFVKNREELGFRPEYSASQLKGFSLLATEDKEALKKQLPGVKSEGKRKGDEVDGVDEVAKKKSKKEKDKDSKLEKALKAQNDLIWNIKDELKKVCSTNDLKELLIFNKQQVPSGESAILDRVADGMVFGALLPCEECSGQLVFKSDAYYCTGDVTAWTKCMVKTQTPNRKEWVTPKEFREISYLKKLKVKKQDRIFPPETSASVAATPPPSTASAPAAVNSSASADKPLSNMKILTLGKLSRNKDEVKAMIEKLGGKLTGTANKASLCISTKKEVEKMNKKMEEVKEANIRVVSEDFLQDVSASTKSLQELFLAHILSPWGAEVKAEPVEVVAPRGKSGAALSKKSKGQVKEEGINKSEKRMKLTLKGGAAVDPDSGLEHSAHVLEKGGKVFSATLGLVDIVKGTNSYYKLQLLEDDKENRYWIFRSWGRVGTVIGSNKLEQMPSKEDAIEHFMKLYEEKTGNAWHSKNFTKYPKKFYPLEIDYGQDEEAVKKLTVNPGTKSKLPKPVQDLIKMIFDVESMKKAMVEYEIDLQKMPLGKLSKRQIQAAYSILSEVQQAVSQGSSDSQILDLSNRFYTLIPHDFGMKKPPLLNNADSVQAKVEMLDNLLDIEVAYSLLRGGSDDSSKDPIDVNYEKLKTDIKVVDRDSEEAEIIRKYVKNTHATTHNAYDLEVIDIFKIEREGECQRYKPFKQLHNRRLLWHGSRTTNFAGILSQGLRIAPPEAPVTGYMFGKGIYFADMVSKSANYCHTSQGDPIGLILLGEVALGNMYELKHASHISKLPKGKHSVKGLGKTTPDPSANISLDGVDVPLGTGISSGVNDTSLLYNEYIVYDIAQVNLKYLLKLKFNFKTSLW

**Q.** Cn1cc(NC(=O)c2ccc(N3CCN(Cc4ccc5nc(C(F)F)c(=O)[nH]c5c4F)CC3)c(F)n2)cn1 [US20250346571, Compound 15] was tested. Which IC50 did it give?
**A.** < 5 nM
